According to publication PMC11048033, “Dual Anti-Inflammatory and Anticancer Activity of Novel 1,5-Diaryl Pyrazole Derivatives: Molecular Modeling, Synthesis, In Vitro Activity, and Dynamics Study” (Biomedicines, 2024):

What was measured:
[1] = molecular target: BSA (bovine albumin serum) (Bos taurus, UniProt P02769); assay: Protein (albumin) denaturation assay; settings: maximum inhibition; compounds tested at 50-200 µg/mL, diclofenac 100 µg/mL
Procedure: Mizushima and Kobayashi’s technique was employed for the determination of in vitro anti-inflammatory activity by the protein denaturation method for the synthesized compounds. […] Then, a mixture of 500µL of 1% aqueous solution of BSA (bovine albumin serum) and 1.4 mL of phosphate buffer saline (PBS, pH 7.4) was added to 100 µL of varying concentrations of the synthesized compounds 50, 100, and 200 µg/mL. […] The mixtures are then incubated for 15 min at 37 °C and then heated for 10 min at 60 °C. The absorbance was measured at 660nm (SHIMADZU, UV-1800 Spectrophotometer) upon cooling. […] The entire experiment was done in triplicate, and the average was calculated. % inhibition of protein denaturation was calculated by: % inhibition=Absorbance of Control−Absorbance of Sample/Absorbance of Control×100
The anti-inflammatory capacity of the target compound was evaluated using the protein denaturation assay.

[2] = molecular target: T1, human COX-1 (Homo sapiens, UniProt P23219); assay: In vitro COX-1 enzymatic assay (Cayman COX (human) Inhibitor Screening Assay Kit); type: biochemical; settings: for COX-1 IC50: human COX-1
T1 construct: purchased Cayman chemicals 701230
Procedure: The ability of the compounds to inhibit COX -2 (IC50 values, µM) was determined by using a “COX (human) Inhibitor Screening Assay Kit” procured from Cayman Chemicals (catalog number 701230). With a slight modification in the method as defined in the reference, the COX-2 inhibition assay was performed. Using the percent conversion of arachidonic acid (AA) to PGH2, the enzyme activity was calculated. By enzyme immunoassay PGF2α, which is produced from PGH2 by reduction with stannous chloride, is calculated. The test compounds’ stock solutions are prepared by dissolving in a minimum amount of DMSO. Human COX-2 (10 µL) in the presence of 10 µL of heme was suspended in 0.1M Tris-HCl buffer (pH 8.0) which contains 2 mM phenol and 5 mM EDTA. This was added to various concentrations of test compounds and, on incubating the solutions at 37 °C for 5 min, 10 µL of AA solution were added. Later, the COX reaction was stopped by adding 1M HCl (50 µL) after 2 min. The intensity of the yellow color which is produced as the product of the enzymatic reaction is determined spectrophotometrically. The percent inhibition was calculated by comparing the compound treated to different control incubations. Celecoxib is utilized as the standard for the assay. The determinations are done in triplicate and the IC50 (µM) was determined using the concentration–inhibition response curve.
During the initiation of the inflammatory process, the COX enzyme plays a vital role in the progression of inflammatory response. The inflammatory mediators that arise due to the action of COX lead to the chemoattraction of neutrophils, macrophages, eosinophils, etc. Due to the involvement of COX in inflammatory diseases, inhibitors of this enzyme can help in designing effective therapeutic agents. […] This was carried out with the help of a COX (human) inhibitor screening assay kit (Item no. 701230) from Cayman chemicals. […] A test substance concentration was considered to be inhibitive when it inhibited human COX-1 or COX-2 by 50%. The compound’s selectivity was measured by its selectivity index values, derived as IC50 (COX-1)/IC50 (COX-2).

[3] = test system: A549 (human lung adenocarcinoma) cell line; assay: MTT anticancer assay, A549; type: cell-based; settings: for IC50 against A549: MTT
Procedure: (§1) The in vitro anticancer activity is determined by counting the viable cells that are stained with a vital dye. The MTT technique is an accurate measure of the activity of live cells using mitochondrial dehydrogenases. The target tumor cells A549 (human lung adenocarcinoma) and HEPG2 (human liver) cell lines are procured from the “National Centre for Cell Science” (NCCS, Pune). The sources of reagents like Trypsin, DMEM, Pen strip, and FBS are procured from Himedia. […] The culture medium was prepared, and the MTT assay was performed as per the general procedure described by Mosmann T. et al., [30] and the % viability of the cells was determined.
(§2) The target compounds tested for in vitro COX-2 were further checked for in vitro anti-cancer activity against A549 (lung cancer) and HepG2 (liver cancer) cell lines using MTT growth inhibition assay. The compounds were tested for cytotoxicity against both the cell lines at concentrations of 6.25, 12.5, 25, 50, and 100 µg/mL. […] Using the graph where % cell viability is plotted versus concentration, the IC50 values are determined with the help of the dose–response regression equation.

[4] = test system: HEPG2 (human liver) cell line; assay: MTT anticancer assay, HepG2; type: cell-based; settings: for IC50 against HepG2: MTT
Procedure: as §1, §2

T1 sequence (P23219 24-599): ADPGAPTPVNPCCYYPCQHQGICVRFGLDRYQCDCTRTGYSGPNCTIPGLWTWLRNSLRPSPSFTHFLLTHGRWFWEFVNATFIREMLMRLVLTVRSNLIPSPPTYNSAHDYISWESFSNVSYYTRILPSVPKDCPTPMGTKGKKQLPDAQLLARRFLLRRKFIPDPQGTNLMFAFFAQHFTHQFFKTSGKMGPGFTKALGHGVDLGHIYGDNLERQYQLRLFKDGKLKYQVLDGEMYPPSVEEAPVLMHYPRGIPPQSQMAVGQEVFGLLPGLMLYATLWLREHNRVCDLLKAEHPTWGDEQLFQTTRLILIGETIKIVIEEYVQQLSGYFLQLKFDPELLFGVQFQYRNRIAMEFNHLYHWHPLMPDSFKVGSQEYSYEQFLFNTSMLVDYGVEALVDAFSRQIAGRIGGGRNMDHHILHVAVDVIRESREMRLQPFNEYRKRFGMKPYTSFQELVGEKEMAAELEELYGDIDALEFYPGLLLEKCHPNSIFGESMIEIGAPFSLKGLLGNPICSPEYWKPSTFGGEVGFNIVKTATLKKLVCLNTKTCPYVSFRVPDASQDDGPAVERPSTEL
Chain of BSA (bovine albumin serum) (P02769 25-607): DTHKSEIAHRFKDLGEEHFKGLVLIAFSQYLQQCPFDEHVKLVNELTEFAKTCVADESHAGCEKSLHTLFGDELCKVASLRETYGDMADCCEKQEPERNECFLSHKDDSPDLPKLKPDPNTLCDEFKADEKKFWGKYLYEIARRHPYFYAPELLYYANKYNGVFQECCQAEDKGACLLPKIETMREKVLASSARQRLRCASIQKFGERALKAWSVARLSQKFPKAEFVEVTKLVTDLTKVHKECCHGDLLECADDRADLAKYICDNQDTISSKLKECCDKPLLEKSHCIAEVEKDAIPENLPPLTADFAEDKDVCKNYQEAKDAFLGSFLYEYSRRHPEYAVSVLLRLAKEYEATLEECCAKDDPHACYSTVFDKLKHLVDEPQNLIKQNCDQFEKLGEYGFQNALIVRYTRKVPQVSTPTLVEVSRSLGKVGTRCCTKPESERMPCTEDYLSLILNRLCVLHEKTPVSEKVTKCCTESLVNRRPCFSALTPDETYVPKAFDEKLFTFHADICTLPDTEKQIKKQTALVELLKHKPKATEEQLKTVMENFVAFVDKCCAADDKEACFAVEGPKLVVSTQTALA

Row | SMILES | % inhibition of albumin denaturation [1] [%] | % COX-1 Inhibition ([2]; 0.781 μg/ml) [%] | % COX-1 Inhibition ([2]; 1.562 μg/ml) [%] | % COX-1 Inhibition ([2]; 3.125 μg/ml) [%] | % COX-1 Inhibition ([2]; 6.25 μg/ml) [%] | % COX-1 Inhibition ([2]; 12.5 μg/ml) [%] | % COX-1 Inhibition ([2]; 25 μg/ml) [%] | % COX-1 Inhibition ([2]; 50 μg/ml) [%] | % COX-1 Inhibition ([2]; 100 μg/ml) [%] | % COX-1 Inhibition ([2]; 250 μg/ml) [%] | COX-1 IC50 [2] [µM] | % cell viability ([3]; A549, 6.25 µg/ml) [%] | % cell viability ([3]; A549, 12.5 µg/ml) [%] | % cell viability ([3]; A549, 25 µg/ml) [%] | % cell viability ([3]; A549, 50 µg/ml) [%] | % cell viability ([3]; A549, 100 µg/ml) [%] | IC50 against A549 ([3]; A549) [µM] | % cell viability ([4]; HepG2, 6.25 µg/ml) [%] | % cell viability ([4]; HepG2, 12.5 µg/ml) [%] | % cell viability ([4]; HepG2, 25 µg/ml) [%] | also measured
1 | NS(=O)(=O)c1ccc(-n2nc(C(=O)NN=Cc3cccc(Oc4ccccc4)c3)cc2-c2ccc(Cl)cc2)cc1 [Compound T3, 4-(5-(4-chlorophenyl)-3-(2-(3-phenoxybenzylidene) hydrazine-1-carbonyl)-1H-pyrazol-1-yl) benzenesulfonamide] | 63.32 | 16.22 ± 0.61 | 24.62 ± 2.13 | 49.90 ± 2.32 | 61.14 ± 3.03 | 73.08 ± 1.76 | 77.09 ± 0.66 | 85.41 ± 0.12 | 87.94 ± 0.94 | 89.26 ± 0.71 | 4.655 | 95.77 | 86.16 | 60.37 | 46.16 | 24.18 | 40.14 | 84.39 | 84.40 | 73.65 | anti-cancer activity against A549 cell lines (in words) ([3]; A549): active; concentration at which compound was effective (from % inhibitory values) ([3]; A549 cell lines): 50 µg/mL; % cell viability ([4]; HepG2, 50 µg/ml): 73.62%; % cell viability ([4]; HepG2, 100 µg/ml): 54.76%; IC50 against HepG2 [4]: > 100 µM
2 | Cc1cc(C=NNC(=O)c2cc(-c3ccc(Br)cc3)n(-c3ccc(S(N)(=O)=O)cc3)n2)cc(C)c1OCc1ccccc1 [Compound T5, 4-(3-(2-(4-(benzyloxy)-3,5-dimethylbenzylidene) hydrazine-1-carbonyl)-5-(4-bromophenyl)-1H-pyrazol-1-yl) benzenesulfonamide] | 70.87 | 14.39 ± 2.17 | 21.90 ± 2.60 | 45.47 ± 1.94 | 57.14 ± 2.17 | 72.58 ± 3.09 | 76.66 ± 1.30 | 84.01 ± 1.77 | 88.49 ± 0.36 | 91.75 ± 2.76 | 5.596 | 97.15 | 92.32 | 72.36 | 62.43 | 30.52 | 60.95 | 84.40 | 73.66 | 73.42 | % cell viability ([4]; HepG2, 50 µg/ml): 54.76%; % cell viability ([4]; HepG2, 100 µg/ml): 39.32%; concentration at which compound was effective (from % inhibitory values) ([4]; HepG2 cell lines): 50 µg/mL; IC50 against HepG2 [4]: 66.93 µM
